# Earlier results in patent US7459141B2, “Technetium-99m-labeled organic germanium nanocolloids, method of preparing the same and use thereof” (Korea Atomic Energy Research Institute, priority 2006, dated 2008).
smiles,measurement,setting,value
"O=C(O)C[CH2][Ge](=[O])[O][Ge](=[O])[CH2]CC(=O)O [Ge-132, bis-carboxyethylgermanium sesquioxide]",tissue concentration after an intravenous (i.v) injection,intravenous,"concentrates in liver, kidney, spleen and gastrointestine tract"
same,tissue concentration after an oral administration,oral,concentrates highly in spleen
